In patent US9150592B2, “Heterocyclic nuclear hormone receptor modulators” (AbbVie Inc., priority 2012, dated 2015):
pIC50: −log10 of the molar value.

Tests used:
[1] = target: T1, Glucocorticoid Receptor (GR) (Homo sapiens, UniProt P04150); assay: GR Fluorescence Polarization Assay (PolarScreen Glucocorticoid Receptor Competitor Assay, Red); conditions: IC50 class ranges, read-out: GR binding
T1 construct: purchased Invitrogen P2893
T1 sequence (P04150 1-777): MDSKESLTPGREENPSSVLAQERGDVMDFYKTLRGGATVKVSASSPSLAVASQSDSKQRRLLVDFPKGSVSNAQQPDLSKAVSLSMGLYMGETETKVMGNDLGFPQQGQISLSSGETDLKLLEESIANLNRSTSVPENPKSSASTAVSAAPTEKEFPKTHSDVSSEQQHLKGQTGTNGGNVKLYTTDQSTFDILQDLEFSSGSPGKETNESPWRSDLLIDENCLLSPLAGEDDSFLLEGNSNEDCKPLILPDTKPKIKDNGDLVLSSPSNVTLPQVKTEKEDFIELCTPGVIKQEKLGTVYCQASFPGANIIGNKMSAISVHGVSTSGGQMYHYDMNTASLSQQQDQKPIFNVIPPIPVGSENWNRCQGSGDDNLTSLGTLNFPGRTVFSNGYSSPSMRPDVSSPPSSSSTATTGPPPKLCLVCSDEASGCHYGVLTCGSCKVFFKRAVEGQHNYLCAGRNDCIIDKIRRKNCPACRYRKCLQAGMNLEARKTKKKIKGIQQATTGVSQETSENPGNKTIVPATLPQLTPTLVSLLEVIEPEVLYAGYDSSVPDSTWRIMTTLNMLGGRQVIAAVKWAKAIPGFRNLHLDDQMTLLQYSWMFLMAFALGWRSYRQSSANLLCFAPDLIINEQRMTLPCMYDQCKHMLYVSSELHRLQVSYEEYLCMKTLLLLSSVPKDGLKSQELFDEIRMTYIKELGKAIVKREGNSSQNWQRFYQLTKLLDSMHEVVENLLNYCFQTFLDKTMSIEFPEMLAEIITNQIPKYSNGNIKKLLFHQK
Procedure, shortened: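 Competitive fluorescence-polarization assay using a red fluorescent glucocorticoid tracer with human GR in kit buffer. Compounds serially diluted 1:4 in DMSO, incubated with tracer and GR overnight at 4° C, then polarization read.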

[2] = test system: IL-6 in A549 cells stimulated with IL-1β; assay: A549 Cell Assay to Measure Inflammation Markers (inhibition of IL-1β-induced IL-6); assay type: cell-based; conditions: Homo sapiens, A549, A549 Cell Assay to Measure Inflammation Markers; intrinsic activity, Emax class ranges
Procedure, shortened: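 Compound pre-incubated with A549 cells 1 h at 37 °C, then stimulated with IL-1β (1 ng/mL final, 0.1% DMSO). Supernatant IL-6 quantified by MSD immunoassay after a further incubation. IC50 and Emax derived.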

Row | SMILES | pIC50 [1] | Emax [2] [%]
1 | Cc1cc(Cl)ccc1[C@@H]1S[C@@H](CCO)CNc2c1c(-c1ccccn1)nn2C (single isomer, unassigned) [M.13, 2-(4-(4-chloro-2-methylphenyl)-1-methyl-3-(pyridin-2-yl)-4,6,7,8-tetrahydro-1H-pyrazolo[3,4-e][1,4]thiazepin-6-yl)ethanol] | > 7.00 | < 50
2 | Cc1cc(C#N)ccc1[C@H]1S[C@@H](C)CNc2c1c(C1CC1)nn2C (racemic) [G.3] | > 7.00 | < 50
3 | Cc1cc(Cl)ccc1C1SC(C)(C)CNc2c1c(C1CC1)nn2C (centres unmarked) [D.45] | > 7.00 | > 60
4 | Cc1cc(Cl)ccc1C1SCCNc2c1c(-c1ccccn1)nn2CC(F)(F)F (centres unmarked) [D.104] | > 7.00 | > 70
5 | Cc1cc(C(=O)Nc2cccnc2C)sc1C1SCCNc2c1c(-c1ccccn1)nn2C (centres unmarked) [F.4] | < 5.00 | < 50
6 | CC1=Nc2c(c(-c3ccccn3)nn2C)C(c2ccc(Cl)cc2C)SC1 (centres unmarked) | 6.00 to 7.00 | < 50
7 | Cc1cc(Br)ccc1[C@@H]1SC[C@@H](CO)Nc2c1c(-c1ccccn1)nn2C (racemic) [K.10, rac-((4R,7S)-4-(4-bromo-2-methylphenyl)-1-methyl-3-(pyridin-2-yl)-4,6,7,8-tetrahydro-1H-pyrazolo[3,4-e][1,4]thiazepin-7-yl)methanol] | > 7.00 | > 60
8 | Cn1nc(-c2ccccc2)c2c1NCCSC2c1ccc(Cl)cc1Cl (centres unmarked) [D.83] | > 7.00 | < 50
9 | CC(C)c1nn(C)c2c1C(c1ccc(Cl)cc1Cl)SCCN2 (centres unmarked) [D.84] | 6.00 to 7.00 | < 50
10 | Cc1cc(Cl)ccc1[C@@H]1SC[C@@H](C)Nc2c1c(-c1ccccn1)nn2C | > 7.00 | > 70
11 | Cc1cc(Br)ccc1[C@H]1SC[C@H](CC#N)Nc2c1c(-c1ccccn1)nn2C (racemic) | > 7.00 | > 50
12 | Cn1nc(-c2ccccn2)c2c1NCCSC2c1ccc(Br)cc1Cl (centres unmarked) | > 7.00 | < 50
13 | Cc1ncccc1NC(=O)c1ccc(C2SCCNc3c2c(-c2ccccn2)nn3C)cc1 (centres unmarked) [F.3] | 5.00 to 6.00 | < 50
14 | CCn1nc(-c2ccccn2)c2c1NCCSC2c1ccc(C(=O)Nc2nncs2)cc1C (centres unmarked) [S.3] | > 7.00 | < 50
15 | Cc1cc(C(=O)Nc2cccnc2C)ccc1C1SCCNc2c1c(-c1ccccn1)nn2C (centres unmarked) | > 7.00 | > 70
16 | Cc1ncccc1NC(=O)c1cc(C2SCCNc3c2c(-c2ccccn2)nn3C)c(C)s1 (centres unmarked) [F.6] | 5.00 to 6.00 | < 50
17 | Cc1ncccc1NC(=O)c1ccc(C2SCCNc3c2c(-c2ccccn2)nn3C)c(Cl)c1 (single isomer, unassigned) | 5.00 to 6.00 | < 50
18 | Cc1cc(O)ccc1C1SCCNc2c1c(-c1ccccn1)nn2C (centres unmarked) [D.42, 3-methyl-4-[1-methyl-3-(2-pyridyl)-4,6,7,8-tetrahydropyrazolo[3,4-e][1,4]thiazepin-4-yl]phenol] | > 7.00 | > 50
19 | Cc1c(Br)cccc1C1SC(C)(C)CNc2c1c(C1CC1)nn2C (centres unmarked) [D.69] | 6.00 to 7.00 | < 50
20 | Cc1cc(Cl)ccc1[C@H]1SC(C)(C)[C@@H](c2ccccc2)Nc2c1c(C)nn2C (racemic) [K.2] | 5.00 to 6.00 | < 50
21 | COc1ccc(C)c(C2SCCNc3c2c(-c2ccccn2)nn3C)c1 (centres unmarked) [D.28] | 5.00 to 6.00 | < 50
22 | COc1cc(C2SCCNc3c2c(-c2ccccn2)nn3C)c(C)cc1Cl (centres unmarked) [D.35] | 5.00 to 6.00 | < 50
23 | Cc1ccc(Br)cc1C1SCCNc2c1c(-c1ccccn1)nn2C (centres unmarked) [D.27, 4-(5-bromo-2-methyl-phenyl)-1-methyl-3-(2-pyridyl)-4,6,7,8-tetrahydropyrazolo[3,4-e][1,4]thiazepine] | > 7.00 | < 50
24 | Cc1cc(S(C)(=O)=O)ccc1C1SC(C)(C)CNc2c1c(C)nn2C (centres unmarked) [D.71] | 5.00 to 6.00 | < 50
25 | CCn1nc(-c2ccccn2)c2c1NCCSC2c1ccc(C(=O)Nc2nnc[nH]2)cc1C (centres unmarked) [S.5] | > 7.00 | > 70
